Columns and labels:
Alternaria solani = Alternaria solani (early blight of tomato/potato) in vitro test, radial growth on potato dextrose agar; format: cell-based; conditions: 168 h, 300 ppm in potato dextrose agar, 25° C., 60% relative humidity, seven days, read-out: control compared to the untreated check (radial growth)
Botrytis cinerea = Botrytis cinerea (gray mold) in vitro test, radial growth on potato dextrose agar; format: cell-based; conditions: 168 h, 300 ppm in potato dextrose agar, 22° C., 90% relative humidity, seven days, read-out: control compared to the untreated check (radial growth)
Phakopsora pachyrhizi = Phakopsora pachyrhizi test in soybean, preventive, in vivo on plants; conditions: in Glycine max, read-out: Efficacy (% control), disease severity compared to the untreated check
Pyricularia oryzae = experiment: microbe, parasite or virus in culture; format: cell-based; conditions: 168 h, read-out: control compared to the untreated check (radial growth)
Rhizoctonia solani = Rhizoctonia solani (rice sheath blight/potato black scurf) in vitro test, radial growth on potato dextrose agar; format: cell-based; conditions: 168 h, 300 ppm in potato dextrose agar, 25° C., 60% relative humidity, seven days, read-out: control compared to the untreated check (radial growth)

Compound | inhibition of growth at 300 ppm (Alternaria solani) | inhibition of growth at 300 ppm (Botrytis cinerea) | pest or weed control at 500 ppm (Phakopsora pachyrhizi) | inhibition of growth at 300 ppm (Pyricularia oryzae) | inhibition of growth at 300 ppm (Rhizoctonia solani)
CCN(C)C=Nc1cc(C)cc(N(C)c2cccc(C(C)C)c2)c1Cl [Compound 63, N′-(2-chloro-3-((3-isopropylphenyl)(methyl)amino)-5-methylphenyl)-N-ethyl-N-methylformimidamide] | ≥ 70% | ≥ 70% | – | – | –
CCN(C)C=Nc1cc(C)cc(Cc2ccc(F)c(C(F)(F)F)c2)c1Cl [Compound 218, N′-(2-chloro-3-(4-fluoro-3-(trifluoromethyl)benzyl)-5-methylphenyl)-N-ethyl-N-methylformimidamide] | ≥ 70% | – | ≥ 70% | ≥ 70% | ≥ 70%
CCN(C)C=Nc1cc(F)cc(Cc2ccc(OC(F)(F)F)cc2)c1C [Compound 176, N-ethyl-N′-(5-fluoro-2-methyl-3-(4-(trifluoromethoxy)benzyl)phenyl)-N-methylformimidamide] | ≥ 70% | ≥ 70% | – | ≥ 70% | ≥ 70%
CCN(C)C=Nc1cc(C)cc(Nc2ccccn2)c1Cl [Compound 85, N′-(2-chloro-5-methyl-3-(pyridin-2-ylamino)phenyl)-N-ethyl-N-methylformimidamide] | ≥ 70% | – | ≥ 70% | – | –
CCN(C)C=Nc1cc(C)cc(Nc2cc(C)cc(F)c2)c1Cl [Compound 111, N′-(2-chloro-3-((3-fluoro-5-methylphenyl)amino)-5-methylphenyl)-N-ethyl-N-methylformimidamide] | – | – | ≥ 70% | ≥ 70% | –
CCN(C)C=Nc1cc(Cl)cc(Cc2cccc(C(F)(F)F)c2)c1C [Compound 127, N′-(5-chloro-2-methyl-3-(3-(trifluoromethyl)benzyl)phenyl)-N-ethyl-N-methylformimidamide] | ≥ 70% | – | ≥ 70% | ≥ 70% | ≥ 70%
CCN(C)C=Nc1cc(C)cc(Cc2cccc(OC)c2)c1Cl [Compound 28, N′-(2-chloro-3-(3-methoxybenzyl)-5-methylphenyl)-N-ethyl-N-methylformimidamide] | ≥ 70% | – | ≥ 70% | ≥ 70% | ≥ 70%
CCN(C)C=Nc1cc(C)cc(Cc2cccnc2)c1Cl [Compound 66, N′-(2-chloro-5-methyl-3-(pyridin-3-ylmethyl)phenyl)-N-ethyl-N-methylformimidamide] | ≥ 70% | – | ≥ 70% | ≥ 70% | –
CCc1cccc(N(C)c2cc(Cl)cc(N=CN(C)CC)c2C)n1 [Compound 253, N′-(5-chloro-3-((6-ethylpyridin-2-yl)(methyl)amino)-2-methylphenyl)-N-ethyl-N-methylformimidamide] | ≥ 70% | – | ≥ 70% | ≥ 70% | ≥ 70%
CCN(C)C=Nc1cc(C)cc(N(C)c2ccc(F)cc2)c1Cl [Compound 69, N′-(2-chloro-3-((4-fluorophenyl)(methyl)amino)-5-methylphenyl)-N-ethyl-N-methylformimidamide] | ≥ 70% | – | ≥ 70% | ≥ 70% | ≥ 70%
CCN(C)C=Nc1cc(C)cc(Nc2ncccc2C)c1Cl [Compound 86, N′-(2-chloro-5-methyl-3-((3-methylpyridin-2-yl)amino)phenyl)-N-ethyl-N-methylformimidamide] | ≥ 70% | – | ≥ 70% | ≥ 70% | –
CCN(C)C=Nc1cc(C)cc(N(C)c2cc(Cl)ccc2C)c1Cl [Compound 110, N′-(2-chloro-3-((5-chloro-2-methylphenyl)(methyl)amino)-5-methylphenyl)-N-ethyl-N-methylformimidamide] | ≥ 70% | ≥ 70% | – | – | –
CCc1cccc(N(C)c2cc(F)cc(N=CN(C)CC)c2C)n1 [Compound 239, N-ethyl-N′-(3-((6-ethylpyridin-2-yl)(methyl)amino)-5-fluoro-2-methylphenyl)-N-methylformimidamide] | ≥ 70% | – | ≥ 70% | – | ≥ 70%
CCN(C)C=Nc1cc(Cl)cc(Nc2ccc3ncsc3c2)c1C [Compound 242, N′-(3-(benzo[d]thiazol-6-ylamino)-5-chloro-2-methylphenyl)-N-ethyl-N-methylformimidamide] | ≥ 70% | – | ≥ 70% | ≥ 70% | ≥ 70%
CCN(C)C=Nc1cc(OC)cc(Cc2ccccc2)c1C [Compound 298, N′-(3-benzyl-5-methoxy-2-methylphenyl)-N-ethyl-N-methylformimidamide] | ≥ 70% | – | ≥ 70% | ≥ 70% | ≥ 70%
CCN(C)C=Nc1cc(Cl)cc(Cc2ccccc2C#N)c1C [Compound 104, N′-(5-chloro-3-(2-cyanobenzyl)-2-methylphenyl)-N-ethyl-N-methylformimidamide] | ≥ 70% | – | ≥ 70% | ≥ 70% | ≥ 70%
CCN(C)C=Nc1cc(F)cc(Nc2ccccc2)c1C [Compound 8, N-ethyl-N′-(5-fluoro-2-methyl-3-(phenylamino)phenyl)-N-methylformimidamide] | ≥ 70% | ≥ 70% | – | ≥ 70% | –
CCN(C)C=Nc1cc(F)cc(N(C)c2cc(F)cc(Cl)c2)c1C [Compound 106, N′-(3-((3-chloro-5-fluorophenyl)(methyl)amino)-5-fluoro-2-methylphenyl)-N-ethyl-N-methylformimidamide] | ≥ 70% | ≥ 70% | – | – | –
CCN(C)C=Nc1cc(F)cc(Cc2ccc(F)c(C(F)(F)F)c2)c1C [Compound 234, N-ethyl-N′-(5-fluoro-3-(4-fluoro-3-(trifluoromethyl)benzyl)-2-methylphenyl)-N-methylformimidamide] | ≥ 70% | – | ≥ 70% | ≥ 70% | ≥ 70%
CCN(C)C=Nc1cc(C#N)cc(Cc2ccc(F)cc2)c1C [Compound 310, N′-(5-cyano-3-(4-fluorobenzyl)-2-methylphenyl)-N-ethyl-N-methylformimidamide] | ≥ 70% | ≥ 70% | – | ≥ 70% | –
CCN(C)C=Nc1cc(C)cc(N(C)c2ncccc2C(F)(F)F)c1Cl [Compound 157, N′-(2-chloro-5-methyl-3-(methyl(3-(trifluoromethyl)pyridin-2-yl)amino)phenyl)-N-ethyl-N-methylformimidamide] | ≥ 70% | – | ≥ 70% | ≥ 70% | –
CCN(C)C=Nc1cc(F)cc(N(C)c2ncccc2C(F)(F)F)c1C [Compound 153, N-ethyl-N′-(5-fluoro-2-methyl-3-(methyl(3-(trifluoromethyl)pyridin-2-yl)amino)phenyl)-N-methylformimidamide] | ≥ 70% | – | ≥ 70% | – | –
CCN(C)C=Nc1cc(C)cc(Cc2cccc(C(F)(F)F)c2)c1Cl [Compound 53, N′-(2-chloro-5-methyl-3-(3-(trifluoromethyl)benzyl)phenyl)-N-ethyl-N-methylformimidamide] | ≥ 70% | – | ≥ 70% | – | –
CCN(C)C=Nc1cc(C)cc(N(C)c2ccc(F)c(OC)c2)c1Cl [Compound 288, N′-(2-chloro-3-((4-fluoro-3-methoxyphenyl)(methyl)amino)-5-methylphenyl)-N-ethyl-N-methylformimidamide] | ≥ 70% | ≥ 70% | – | ≥ 70% | –
CCN(C)C=Nc1cc(C)cc(Cc2ccc(F)cc2Br)c1Cl [Compound 215, N′-(3-(2-bromo-4-fluorobenzyl)-2-chloro-5-methylphenyl)-N-ethyl-N-methylformimidamide] | – | – | ≥ 70% | – | –
CCN(C)C=Nc1cc(F)cc(Nc2cnccn2)c1C [Compound 193, N-ethyl-N′-(5-fluoro-2-methyl-3-(pyrazin-2-ylamino)phenyl)-N-methylformimidamide] | – | – | ≥ 70% | – | –
CCN(C)C=Nc1cc(Cl)cc(Nc2ccccc2)c1C [Compound 155, N′-(5-chloro-2-methyl-3-(phenylamino)phenyl)-N-ethyl-N-methylformimidamide] | ≥ 70% | – | ≥ 70% | ≥ 70% | –
CCN(C)C=Nc1cc(OC)cc(Cc2cccc(C)c2)c1C [Compound 278, N-ethyl-N′-(5-methoxy-2-methyl-3-(3-methylbenzyl)phenyl)-N-methylformimidamide] | – | – | ≥ 70% | – | –
CCN(C)C=Nc1cc(C#N)cc(Cc2ccc(Cl)cc2)c1C [Compound 311, N′-(3-(4-chlorobenzyl)-5-cyano-2-methylphenyl)-N-ethyl-N-methylformimidamide] | – | ≥ 70% | – | ≥ 70% | ≥ 70%
CCN(C)C=Nc1cc(Cl)cc(Nc2cnccn2)c1C [Compound 211, N′-(5-chloro-2-methyl-3-(pyrazin-2-ylamino)phenyl)-N-ethyl-N-methylformimidamide] | – | – | ≥ 70% | – | –

— patent US12545639B2, “3-substituted phenylamidine compounds, preparation and use thereof” (PI INDUSTRIES LTD., priority 2019, dated 2026)
